{"source": "a melting point compilation (Tetko et al.; mined from patent text by program, amines drawn as free bases though some values may be those of a salt)"}
{"units": {"melting point": "°C"}}
{"compound": "Cc1ccc(S(=O)(=O)N2CCCC2c2ccc(F)cc2)cc1", "note": "(racemic)", "melting point": 128}
{"compound": "COc1ccc(CSc2nnc(-c3ccc4c(c3)CCO4)o2)cc1", "melting point": "121 to 124"}
{"compound": "COc1cccc2c1CCCC2=NNc1nc(-c2cccc([N+](=O)[O-])c2)cs1", "melting point": 185}
{"compound": "N#CC1=C(c2ccccc2)Nc2n[nH]cc2C1c1ccccc1[N+](=O)[O-]", "note": "(stereo not drawn)", "melting point": 221}
{"compound": "O=S1(=O)NCN(CCF)c2cc(Cl)c(Br)cc21", "melting point": "159 to 162"}
{"compound": "COc1cccc(F)c1-c1ccc(NC(=O)OC(C)(C)C)c([N+](=O)[O-])c1", "melting point": "65 to 68"}
{"compound": "CS(=O)(=O)c1ccc(-c2cccn2-c2ccc(Cl)c(Cl)c2)cc1", "melting point": "139 to 142"}
{"compound": "CCOC(=O)N1CCN(c2ccc(C(=O)CCc3ccc(NC4=NCCN4)cc3)cc2)CC1", "melting point": "150 to 151"}
{"compound": "Cc1ccc(-c2cncnc2O)cc1", "melting point": "189 to 192"}
{"compound": "O=C(O)CCCc1ccc(CCNS(=O)(=O)c2ccccc2)cc1", "melting point": "70 to 71"}
{"compound": "O=[N+]([O-])c1cn(-c2cccnc2)nc1F", "melting point": "139 to 141"}
{"compound": "COC1CCN(c2cc3c(cc2C#Cc2ccccc2)NC(=O)CC(c2cccc(-n4ccnc4)c2)=N3)CC1", "melting point": 222}
{"compound": "COc1ccc(-c2ccc(CCNC(=O)c3cc(Cl)ccc3OC)cc2S(N)(=O)=O)cc1", "melting point": "205 to 208"}
{"compound": "Cn1c(CNCC(C)(C)O)cc2cc(NC(=O)c3ccc(OCC4CC4)cc3)ccc21", "melting point": "188 to 189"}
{"compound": "CC(=NC1CCCCC1)Nc1ccccc1C", "melting point": "130 to 131"}
{"compound": "COC(=O)CCC(C(=O)c1cccc(O)c1)c1ccccc1C", "note": "(racemic)", "melting point": "101 to 103"}
{"compound": "N#Cc1cc(Cl)cc(CO)c1", "melting point": "110 to 111"}
{"compound": "CCc1cc(C(C)=O)c(O)cc1OCCCCCn1cncn1", "melting point": 87}
{"compound": "CCC1(CCCCN2CCN(c3ccccn3)CC2)C(=O)Nc2ccccc21", "note": "(stereo not drawn)", "melting point": "131 to 133"}
{"compound": "CCCCOc1cc(C(=O)O)cc([N+](=O)[O-])c1C(=O)c1ccc(C)cc1", "melting point": "162 to 163"}
{"compound": "COc1nc(C)cnc1NS(=O)(=O)c1cccnc1-c1ccc(CC(C)CO)cc1", "note": "(stereo not drawn)", "melting point": "118 to 119"}
{"compound": "CC12CC(N3CCOCC3)C(O)CC1CCC1C2CCC2(C)C(C(=O)CCl)CCC12", "note": "(stereo not drawn)", "melting point": 181}
{"compound": "C/C=C/Cn1c(Cc2cc(C)cc(C)c2)c(CC)c(=O)[nH]c1=O", "melting point": "145 to 146"}
{"compound": "O=C1c2ccccc2C(=O)N1Cc1ccncc1", "melting point": "164 to 165"}
{"compound": "CCOC(=O)c1c(-c2ccncc2)[nH]c(-c2ccncc2)c1CC", "melting point": "212 to 215"}
{"compound": "N#CN=C(NCCC[C@@H](NC(=O)C(c1ccccc1)c1ccccc1)C(=O)NCc1ccc(O)cc1)Oc1ccccc1", "melting point": "110 to 112"}
{"compound": "CC(C)n1nc2cccc([N+](=O)[O-])c2n1", "melting point": "65 to 67"}
{"compound": "CC(=O)c1cccc(Nc2cc(C)nc(N)n2)c1", "melting point": "194 to 196"}
{"compound": "CCCCCC(O)CCCOC(=O)c1ccccc1", "note": "(stereo not drawn)", "melting point": "90 to 93"}
{"compound": "CCN(CC)C(=O)c1nc2cnn(CC)c2nc1-c1ccccc1", "melting point": "111 to 112"}
{"compound": "Cn1ncnc1COc1nn2c(-c3ccccc3F)nnc2cc1C1CC(F)(F)C1", "melting point": 178}
{"compound": "Oc1c(Br)cc(F)cc1Cc1cc(Cl)cc(Cc2cc(F)cc(Br)c2O)c1O", "melting point": "192 to 194"}
{"compound": "CCN(C(=O)C1CC1)c1cccc(-c2ccnc3c(Cl)cnn23)c1", "melting point": "150 to 151"}
{"compound": "CCCCN(C)c1nsc(N)c1C#N", "melting point": "87 to 89"}
{"compound": "COc1ccc(C(=O)N2CCc3cc(O)ccc3C2)cc1OC", "melting point": "58 to 77"}
{"compound": "O=C(O)Cc1cc(C(=O)c2cccc(F)c2)ccc1O", "melting point": 171}
{"compound": "O=C(O)CCC(=O)c1cccc(S(=O)(=O)Cl)c1", "melting point": "73 to 78"}
{"compound": "COc1ccc(C(CC(=O)Nc2ncccc2C)N2C(=O)c3ccccc3C2=O)cc1OC", "note": "(stereo not drawn)", "melting point": "171 to 172"}
{"compound": "Nc1ccc(Br)cc1CO", "melting point": "107 to 110"}
{"compound": "CCCCCCCCCCCCCCCCCC#CC(C(=O)OCC)C(=O)OCC", "melting point": "33 to 34"}
{"compound": "CCCNC(=O)Nc1nn(Cc2ccccc2)cc1C(=O)OCC", "melting point": "100 to 101"}
{"compound": "CC(C)COC(=O)Nc1cc(F)cc(F)c1", "melting point": "71 to 74"}
{"compound": "Fc1ccc(Cn2c(NC3CCN(CCNC(=S)N4CCCCC4)CC3)nc3ccccc32)cc1", "melting point": 176}
{"compound": "O=C1OC(c2ccccc2)(c2ccccc2)C2CN(S(=O)(=O)c3ccccc3)CCN12", "note": "(stereo not drawn)", "melting point": "236 to 237"}
{"compound": "C=C(OCc1ccccc1)C(=O)OC", "melting point": "44.5 to 45.5"}
{"compound": "N=C(Nc1ccccc1-c1cccc(F)c1)N1CCC(O)CC1", "melting point": "147 to 148"}
{"compound": "CCOC(=O)c1nc2cccnc2n(-c2ccc(Cl)cc2)c1=O", "melting point": 158}
{"compound": "CCCCc1nc2c(C)c(Cl)cc(C(=O)O)c2n1Cc1ccc(C(=O)O)cc1", "melting point": "293 to 294"}
{"compound": "Cc1cc(-n2ccnc2)c2cccc(OCc3c(Cl)ccc(S(=O)(=O)N4CCC[C@H]4C(=O)NCC4CCN(CCC(=O)O)CC4)c3Cl)c2n1", "melting point": 140}
{"compound": "CCn1nc(C2CC2)c(C(=O)O)c1Cc1ccc(-c2ccccc2S(=O)(=O)NC(=O)c2ccccc2)cc1", "melting point": 217}
{"compound": "NC(=S)c1ccc(O)cc1O", "melting point": "164 to 166"}
{"compound": "COc1ccc(NC2C=CC3=Nc4ccccc4SC3=C2)cc1", "note": "(stereo not drawn)", "melting point": "135 to 136"}
{"compound": "Cc1nc(-c2[nH]c3ccccc3c2C=O)no1", "melting point": "228 to 230"}
{"compound": "C=CCCC(C#N)(C#N)Cc1ccc(OC(F)(F)C(F)F)cc1", "melting point": 60.5}
{"compound": "CC(C)(C)OC(=O)Nn1ccc2ccccc21", "melting point": "112 to 116"}
{"compound": "O=C(Oc1ccc(F)cc1)c1ccccc1", "melting point": "48 to 50"}
{"compound": "CCCCCCCCCCCCOc1ccc([N+](=O)[O-])cc1", "melting point": "51.5 to 53"}
{"compound": "CCCCCCC(=O)c1ccc2c(c1)CC(=O)O2", "melting point": "64 to 67"}
{"compound": "CC(=Cc1ccc2[nH]ccc2c1)C(=O)O", "melting point": "207 to 209"}
{"compound": "COC(=O)[C@H](Cc1ccc(O)c(C2SCCS2)c1)NC(C)=O", "melting point": "97 to 99"}
{"compound": "CCC(=O)Nc1nnc2c3c(c(N4CCCCC4)nn12)CCCC3", "melting point": "173 to 174"}
{"compound": "CN[C@@H]1CN(c2cc3c(cc2F)c(=O)c(C(=O)O)cn3C(C)(C)C)[C@H]1C", "note": "(relative stereo)", "melting point": "194 to 195"}
{"compound": "ClC(=NNc1c(Cl)cc(Cl)cc1Cl)c1ccccc1", "melting point": "93 to 94.5"}
{"compound": "Cc1[nH]nc(C(C)C)c1Oc1cc(C#N)cc(C#N)c1", "melting point": "142 to 144"}
{"compound": "O=C1CCC(N2Cc3c(OCc4ccc(CN5CCn6nc(C(F)(F)F)nc6C5)cc4)cccc3C2=O)C(=O)N1", "note": "(stereo not drawn)", "melting point": "139 to 142"}
{"compound": "COc1ccc(-c2ncnnc2-c2ccc(OC)cc2)cc1", "melting point": "118 to 120"}
{"compound": "O=C(NCCCc1ccncc1)N(CCCC(F)(F)F)CCC12CC3CC(CC(C3)C1)C2", "melting point": "143 to 145"}
{"compound": "O=C(NCc1ccc(F)cc1-n1cncn1)c1nc2n(c(=O)c1OCc1ccccc1)CCN2c1ccccc1", "melting point": "187 to 190"}
{"compound": "CCCCOP(=O)(OCCCC)C(Sc1cc(F)ccc1O)=P(OCCCC)(OCCCC)OCCCC", "melting point": "165 to 166"}
{"compound": "COc1cc2c(c3c1OC1(CCCC1)C3)C(c1ccccc1)=NC(C)(C)C2", "melting point": "130 to 131"}
{"compound": "COC(=O)c1cc(-c2ccccc2)c(=O)n2c1-c1sccc1CN2C", "melting point": "180 to 181"}
{"compound": "CCOC(=O)c1c(Nc2ccccc2)nc2ccc(Br)cc2c1Cl", "melting point": "171 to 172"}
{"compound": "COC1(OC)C(=O)NC(Nc2ncnc3c2ncn3C2OC(CO)C(O)C2O)C1Cl", "note": "(stereo not drawn)", "melting point": "110 to 120"}
